This assay concerns the target T1, androgen receptor (Homo sapiens, UniProt P10275).
T1 sequence (P10275 1-920 Q868H): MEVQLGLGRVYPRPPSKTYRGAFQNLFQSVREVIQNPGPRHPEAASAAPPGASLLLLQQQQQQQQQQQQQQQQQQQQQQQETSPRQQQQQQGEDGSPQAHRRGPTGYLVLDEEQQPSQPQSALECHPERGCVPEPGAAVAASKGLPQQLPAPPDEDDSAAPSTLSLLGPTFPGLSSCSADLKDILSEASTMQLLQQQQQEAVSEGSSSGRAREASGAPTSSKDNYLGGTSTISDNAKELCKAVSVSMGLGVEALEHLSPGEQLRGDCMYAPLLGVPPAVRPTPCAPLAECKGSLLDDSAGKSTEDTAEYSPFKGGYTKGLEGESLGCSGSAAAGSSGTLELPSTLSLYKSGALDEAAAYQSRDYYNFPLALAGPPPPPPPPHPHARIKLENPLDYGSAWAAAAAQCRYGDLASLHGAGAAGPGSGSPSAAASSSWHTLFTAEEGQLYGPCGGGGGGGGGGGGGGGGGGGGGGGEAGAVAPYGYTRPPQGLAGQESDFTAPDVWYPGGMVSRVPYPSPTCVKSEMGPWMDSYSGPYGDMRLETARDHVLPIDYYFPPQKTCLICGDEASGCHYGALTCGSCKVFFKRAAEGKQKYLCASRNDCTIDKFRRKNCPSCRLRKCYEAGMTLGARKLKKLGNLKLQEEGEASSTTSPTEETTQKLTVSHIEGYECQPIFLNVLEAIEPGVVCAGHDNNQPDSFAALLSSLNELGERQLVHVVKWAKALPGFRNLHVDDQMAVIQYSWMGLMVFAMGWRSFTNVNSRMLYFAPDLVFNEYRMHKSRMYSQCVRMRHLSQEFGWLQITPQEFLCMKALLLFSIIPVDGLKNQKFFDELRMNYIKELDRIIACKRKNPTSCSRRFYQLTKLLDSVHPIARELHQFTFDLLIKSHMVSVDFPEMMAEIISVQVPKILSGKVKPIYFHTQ
In words: AR Antagonist Cell Assay (MMTV-luciferase reporter, DHT-induced). The conditions noted are these: MDA-MB453-MMTV clone 54-19 cells, 100 pM DHT, 17 hr. In kind it is cell-based. The method, boiled down: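 Stably transfected MDA-MB453 cells carrying an ARE-containing MMTV promoter–firefly luciferase reporter, pretreated 30 min with compound at 10 uM or 1 uM in 1% charcoal-treated serum medium. Then stimulated with 100 pM DHT for 17 hr at 37° C. and luminescence read; expressed as % inhibition of DHT-induced signal.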

Molecule `O=c1cc(C(F)(F)F)c2cc(S(=O)(=O)NCc3ccc(F)cc3)ccc2[nH]1` [Example 129, 2-Oxo-4-trifluoromethyl-1,2-dihydroquinoline-6-sulfonic acid4-fluorobenzylamide] came in with an IC50 above 10 µM.

Consider `Cn1c(=O)cc(C(F)(F)F)c2cc(S(=O)(=O)NC3CCc4ccccc43)ccc21` (stereo not shown) [Example 55, 1-Methyl-2-oxo-4-trifluoromethyl-1,2-dihydroquinoline-6-sulfonicacid indan-1-ylamide], for which the IC50 came out at 4.31 µM.

Molecule `Cn1c(=O)cc(C(F)(F)F)c2cc(S(=O)(=O)Nc3ccc4c(c3)CCC4)ccc21` [Example 22, 1-Methyl-2-oxo-4-trifluoromethyl-1,2-dihydroquinoline-6-sulfonicacid indan-5-ylamide] displayed a half-inhibitory concentration (IC50) of 4.47 µM.

For the molecule `O=c1cc(C(F)(F)F)c2cc(S(=O)(=O)Nc3cccc(CO)c3)ccc2[nH]1` [Example 91, 2-Oxo-4-trifluoromethyl-1,2-dihydroquinoline-6-sulfonic acid(3-hydroxymethylphenyl)amide], inhibition was half-maximal at 3.13 µM (IC50).

Consider `Cn1c(=O)cc(C(F)(F)F)c2cc(S(=O)(=O)NCCc3ccccc3)ccc21` [Example 50, 1-Methyl-2-oxo-4-trifluoromethyl-1,2-dihydroquinoline-6-sulfonicacid phenethylamide], for which the half-maximal inhibitory concentration (IC50) stood at 1.55 µM.

Molecule `COc1cccc(NS(=O)(=O)c2ccc3[nH]c(=O)cc(C(F)(F)F)c3c2)c1` [Example 116, 2-Oxo-4-trifluoromethyl-1,2-dihydroquinoline-6-sulfonic acid(3-methoxyphenyl)amide] displayed an IC50 of 0.34 µM.

As to `O=c1cc(C(F)(F)F)c2cc(S(=O)(=O)N[C@H]3CCCC[C@H]3OCc3ccccc3)ccc2[nH]1` [Example 160, 2-Oxo-4-trifluoromethyl-1,2-dihydroquinoline-6-sulfonic acid(2-benzyloxycyclohexyl)amide], the 50% inhibitory concentration (IC50) is above 10 µM.

Molecule `Cn1c(=O)cc(C(F)(F)F)c2cc(S(=O)(=O)NCCSCc3c(F)cccc3Cl)ccc21` [Example 63, 1-Methyl-2-oxo-4-trifluoromethyl-1,2-dihydroquinoline-6-sulfonicacid [2-(2-chloro-6-fluorobenzylsulfanyl)ethyl]-amide] registered a half-inhibitory concentration (IC50) above 10 µM.

On to `Cc1ccc(F)cc1CNS(=O)(=O)c1ccc2[nH]c(=O)cc(C(F)(F)F)c2c1` [Example 137, 2-Oxo-4-trifluoromethyl-1,2-dihydroquinoline-6-sulfonic acid5-fluoro-2-methylbenzylamide], for which the IC50 is 3.76 µM.

With `O=c1cc(C(F)(F)F)c2cc(S(=O)(=O)NC3CCCCCC3)ccc2[nH]1` [Example 126, 2-Oxo-4-trifluoromethyl-1,2-dihydroquinoline-6-sulfonic acidcycloheptylamide], the IC50 turned out to be 2.93 µM.

Molecule `O=c1cc(C(F)(F)F)c2cc(S(=O)(=O)Nc3cccc(OC(F)(F)F)c3)ccc2[nH]1` [Example 112, 2-Oxo-4-trifluoromethyl-1,2-dihydroquinoline-6-sulfonic acid(3-trifluoromethoxyphenyl)amide] showed a half-inhibitory concentration (IC50) of 0.12 µM.

Molecule `Cn1c(=O)cc(C(F)(F)F)c2cc(S(=O)(=O)Nc3ccc(Cl)cc3)ccc21` [Example 31, 1-Methyl-2-oxo-4-trifluoromethyl-1,2-dihydroquinoline-6-sulfonicacid (4-chlorophenyl)amide] showed a concentration for half-maximal inhibition (IC50) of 1.32 µM.

In turn, `O=c1cc(C(F)(F)F)c2cc(S(=O)(=O)NC3CCCC3)ccc2[nH]1` [Example 120, 2-Oxo-4-trifluoromethyl-1,2-dihydroquinoline-6-sulfonic acidcyclopentylamide] had a half-inhibitory concentration (IC50) of 0.82 µM.

Turning to `O=c1cc(C(F)(F)F)c2cc(S(=O)(=O)Nc3ccc4c(c3)CCC4)ccc2[nH]1` [Example 96, 2-Oxo-4-trifluoromethyl-1,2-dihydroquinoline-6-sulfonic acidindan-5-ylamide], the concentration for half-maximal inhibition (IC50) came out at 0.14 µM.

The molecule `CCCN(CC1CC1)S(=O)(=O)c1ccc2[nH]c(=O)cc(C(F)(F)F)c2c1` [Example 73, 2-Oxo-4-trifluoromethyl-1,2-dihydroquinoline-6-sulfonic acidcyclopropylmethyl-propylamide] displayed an IC50 of 0.55 µM. This IC50 lies about 3.9-fold higher than the previous one.

`O=c1cc(C(F)(F)F)c2cc(S(=O)(=O)N[C@H]3[C@@H]4CC[C@@H](C4)[C@H]3CO)ccc2[nH]1` [Example 148, 2-Oxo-4-trifluoromethyl-1,2-dihydroquinoline-6-sulfonic acid(3-hydroxy-methylbicyclo[2.2.1]hept-2-yl)] came in with an IC50 of 2.26 µM.

On to `O=c1cc(C(F)(F)F)c2cc(S(=O)(=O)Nc3cccc(OCc4ccccc4)c3)ccc2[nH]1` [Example 114, 2-Oxo-4-trifluoromethyl-1,2-dihydroquinoline-6-sulfonic acid(3-benzyloxyphenyl)amide], for which the IC50 was above 10 µM.

As to `Cc1cccc(NS(=O)(=O)c2ccc3c(c2)c(C(F)(F)F)cc(=O)n3C)c1` [Example 13, 1-Methyl-2-oxo-4-trifluoromethyl-1,2-dihydroquinoline-6-sulfonicacid m-tolylamide], the midpoint of inhibition, the IC50, lay at 0.76 µM.

The molecule `C#Cc1ccc(NS(=O)(=O)c2ccc3[nH]c(=O)cc(C(F)(F)F)c3c2)cc1` [Example 86, 2-Oxo-4-trifluoromethyl-1,2-dihydroquinoline-6-sulfonic acid(4-ethynylphenyl)amide] registered an IC50 of 0.45 µM.

Molecule `Cc1cccc(C)c1NS(=O)(=O)c1ccc2[nH]c(=O)cc(C(F)(F)F)c2c1` [Example 90, 2-Oxo-4-trifluoromethyl-1,2-dihydroquinoline-6-sulfonic acid(2,6-dimethylphenyl)amide] had an IC50 above 10 µM.

With `O=c1cc(C(F)(F)F)c2cc(S(=O)(=O)NCC3CCCCC3)ccc2[nH]1` [Example 123, 2-Oxo-4-trifluoromethyl-1,2-dihydroquinoline-6-sulfonic acidcyclohexylmethylamide], the midpoint of inhibition, the IC50, lay at 8.51 µM. That is a single-digit micromolar value.

As to `CC(C)(NS(=O)(=O)c1ccc2oc(=O)cc(C(F)(F)F)c2c1)c1ccccc1` [Example 65, 2-Oxo-4-trifluoromethyl-2H-chromene-6-sulfonic acid (1-methyl-1-phenylethyl)amide], the IC50 is above 10 µM.

Molecule `CCCCCN(CCO)S(=O)(=O)c1ccc2[nH]c(=O)cc(C(F)(F)F)c2c1` [Example 74, 2-Oxo-4-trifluoromethyl-1,2-dihydroquinoline-6-sulfonic acid(2-hydroxyethyl)-pentylamide] showed an IC50 of 0.29 µM.

As for `CCc1ccc(NS(=O)(=O)c2ccc3c(c2)c(C(F)(F)F)cc(=O)n3C)cc1` [Example 17, 1-Methyl-2-oxo-4-trifluoromethyl-1,2-dihydroquinoline-6-sulfonicacid (4-ethylphenyl)amide], the half-inhibitory concentration (IC50) came to 0.87 µM.

`COc1ccc(OC)c(NS(=O)(=O)c2ccc3[nH]c(=O)cc(C(F)(F)F)c3c2)c1` [Example 102, 2-Oxo-4-trifluoromethyl-1,2-dihydroquinoline-6-sulfonic acid(2,5-dimethoxyphenyl)amide] returned an IC50 of 7.86 µM. Compared with the last molecule, the IC50 is about 9-fold higher.

Regarding `CC(C)c1ccc(NS(=O)(=O)c2ccc3c(c2)c(C(F)(F)F)cc(=O)n3C)cc1` [Example 25, 1-Methyl-2-oxo-4-trifluoromethyl-1,2-dihydroquinoline-6-sulfonicacid (4-isopropylphenyl)amide], the IC50 is 8.61 µM. The IC50 values of the last two molecules are within 1.5-fold of each other.

In turn, `CC(O)c1cccc(NS(=O)(=O)c2ccc3[nH]c(=O)cc(C(F)(F)F)c3c2)c1` (stereo not shown) [Example 100, 2-Oxo-4-trifluoromethyl-1,2-dihydroquinoline-6-sulfonic acid[3-(1-hydroxyethyl)phenyl]amide] displayed an IC50 above 10 µM.

`CSc1ccccc1CNS(=O)(=O)c1ccc2[nH]c(=O)cc(C(F)(F)F)c2c1` [Example 143, 2-Oxo-4-trifluoromethyl-1,2-dihydroquinoline-6-sulfonic acid2-methylsulfanylbenzylamide] came in with an IC50 of 0.84 µM.

In the case of `O=c1cc(C(F)(F)F)c2cc(S(=O)(=O)NCCCO)ccc2[nH]1` [Example 157, 2-Oxo-4-trifluoromethyl-1,2-dihydroquinoline-6-sulfonic acid(3-hydroxypropyl)amide], the midpoint of inhibition, the IC50, lay at 6.73 µM.

On to `CCCCN(CC)S(=O)(=O)c1ccc2c(c1)c(C(F)(F)F)cc(=O)n2C` [Example 4, 1-Methyl-2-oxo-4-trifluoromethyl-1,2-dihydroquinoline-6-sulfonicacid butylethylamide], for which the half-maximal inhibitory concentration (IC50) is 10.6 µM.

`O=c1cc(C(F)(F)F)c2cc(S(=O)(=O)Nc3ccc(F)cc3)ccc2[nH]1` [Example 84, 2-Oxo-4-trifluoromethyl-1,2-dihydroquinoline-6-sulfonic acid(4-fluorophenyl)amide] yielded an IC50 of 7.08 µM.

One may read the IC50 as the concentration needed to halve the response being measured. Low values mean greater potency in that assay, high ones weaker potency in that assay.

Source of the values: US7009052B2, “Sulfonamide derivatives” (Warner Lambert Company LLC, priority 2003, dated 2006).
